{"source": "patent US11680086B2", "about": "“Lipopeptide for potently inhibiting HIV, derivative thereof, pharmaceutical composition thereof and use thereof” (Institute of Pathogen Biology, Chinese Academy of Medical …, priority 2017, dated 2023)", "key": {"[1]": {"system": "35 HIV-1 pseudoviruses (subtypes A, B, B', C, G, A/C, A/E, B/C)", "conditions": "for inhibitory activity against different subtypes of HIV-1 as folds of T-20: relative to T-20, from average IC50", "description": "HIV-1 pseudovirus-mediated cell entry inhibition assay: basic steps included: (1) Preparation of HIV-1 pseudovirus: the 293T cells were co-transfected with a plasmid expressing the envelope protein (Env) of HIV-1 strain NL4-3 (i.e., a recombinant expression plasmid obtained by inserting the gene encoding the envelope protein (ENV) of the D36G mutant of the HIV-1 strain NL4-3 in the Table 2 of the Reference 14 listed in the Background Art into the vector pcDNA3.1(−)) and the HIV-1 backbone plasmid pSG3Δenv (provided by the AIDS Reagent Program of National Institutes of Health (NIH), catalog number: 11051) by using a cell transfection reagent, incubated in a cell incubator of 37° C. and 5% CO2 for 6 hours, and then the medium was changed, and the cells were further incubated for 48 hours. The cell culture supernatant containing pseudovirus particles was pipetted and filtered with a 0.45 μm filter to collect the supernatant, then 20% fetal bovine serum (FBS) was added thereto, the final solution was transferred to a polypropylene tube, and stored at −80° C. for ready for use or directly subjected to virus titration. (2) Titration of HIV-1 pseudovirus: the viruses were diluted by 5 folds in a 96-well plate, and 4 replicate wells with 8 gradients were set to a final volume of 100 microliters. The TZM-b1 cells were trypsinized and counted, and the cells were diluted to 1×10^5 cells/ml with DMEM complete medium; 100 μl of cells dilution (containing 15 μg/ml DEAE-dextran) per well were added and cultured at 37° C. and 5% CO2 for 48 hours. The 96-well plate was then taken from the cell culture incubator. The supernatant was discarded from the wells. To each well, 30 μl of a cell lysate was added, and after 10 minutes, 100 μl of a luciferase detection reagent was added. 100 μl of liquid was pipetted from each well and added to a corresponding 96-well white plate, and the luminescence values were read by a microplate photometer. The virus titer was calculated by the Reed-Muench method. (3) Antiviral activity assay: the test substance was dissolved in DMSO and diluted with a cell culture solution by 3 folds, and placed in a 96-well plate at a final volume of […]. 50 μl of a DMEM medium was used in place of the test substance as a negative control. To each well, 100 μl of TZM-b1 target cells solution (containing 15 μg/ml DEAE-dextran) at a concentration of 1×10^5 cells/ml was added, and then 50 μl (corresponding to 100 TCID50 per well) of the HIV-1 pseudovirus obtained above was added. After incubation at 37° C. and 5% CO2 for 48 hours, the relative light units (RLU) of each well were determined by using a luciferase detection reagent (Promega). Inhibition rate (%) and IC50 value were calculated.\nAmong them, the A, B and C subtypes were the main viruses causing AIDS epidemic in the world, while B/C and A/E recombinant viruses were the main viruses in China. […] Among the Env expression plasmids used for the preparation of pseudoviral, except that the Env expression plasmids used for preparation of PVO, Du156 and CAP 210.2.00.E8 were obtained from the AIDS Reagent Program of NIH in the United states, other plasmids were preserved by the laboratory of Prof. He Yuxian, Institute of Pathogen Biology, Chinese Academy of Medical Sciences, please see the References 13, 14 and 18 listed in the Background Art and articles of Chong et al. (Chong H, Yao X, Zhang C, Cai L, Cui S, Wang Y, He Y. Biophysical property and broad anti-HIV activity of Albuvirtide, a 3-maleimimidoproprotionic acid-modified peptide fusion inhibitor. PLoS One, 2012; 7 (3): e 32599). The preparation of the pseudovirus and the antiviral assay were the same as those in Example 2.1 of Example 2 (HIV-1 pseudovirus-mediated cell entry inhibition assay)."}, "[2]": {"system": "SIV pseudoviruses SIVpbj and SIV239", "assay": "inhibition of SIV pseudoviruses", "assay_type": "cell-based", "protocol": "The supernatant was discarded from the wells. […] Inhibition rate (%) and IC50 value were calculated.\nIn order to further reflect the antiviral advantages of the potent lipopeptides of the present invention, their inhibitory activity against HIV-2 and SIV was determined in the example. The methods of antiviral activity assays used were described in the literatures published by the present inventors (see the References 13 and 30 listed in the Background Art). The molecular cloning plasmid pROD of the HIV-2 strain ROD (HIV-2ROD) was kindly provided by Professor Nuno Taveira from the University of Lisbon, Portugal, and the plasmids expressing the SIV strain SIVpbj (SIVPBJ) and SIV239 envelope proteins (pSIVpbj-Env and pSIV239, respectively) were kindly provided by Professor Xu Jianqing from the Fudan University. The preparation of the infectious ROD was the same as that of the infectious JRCSF in the above section 2.1, and the pseudoviruses SIVpbj and SIV239 were prepared by a method same as that described in the above Examples 2 and 3."}, "[3]": {"molecular_target": "N39 (NHR-derived polypeptide of gp41) (Human immunodeficiency virus type 1 group M subtype B, UniProt P04578)", "sequence (P04578 528-566)": "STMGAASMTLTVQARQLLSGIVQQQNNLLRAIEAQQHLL", "assay_type": "binding, HIV-1", "conditions": "10 μM each, PBS pH 7.2", "protocol": "The circular dichroism spectrophotometer was Jasco-815 by JASCO Inc., and the assay method was referred to the papers published by the inventors (see the References 18 and 30 listed in the Background Art). […] The N39 and an inhibitor were separately dissolved in a phosphate buffered saline (PBS) to prepare a PBS solution (pH 7.2) of a concentration of 20 μM. The N39 was mixed with an inhibitor at a volume ratio of 1:1 (final concentration of 10 μM for each), the mixed sample was placed at 37° C. for 30 minutes to fully react, and then the helix content and Tm value of the resultant complex were measured by the circular dichroism spectrophotometer. The scan wavelength range of the device was 195-260 nm with a wavelength interval of 1 nm, and the values measured by scanning for three times were averaged. Based on the CD signals, the interaction between the polypeptides and the helix content were determined. Then, the sample for CD signal measurement was transferred to the temperature scanning sample cell, the program of the CD device was set to temperature scanning with a detection wavelength of 220 nm and scanning range of 20-98° C., and the program scan was performed to obtain the curve of the CD signals vs temperature, based on which the Tm value was calculated. Based on the Tm value, the stability of the formed helical structure of the inhibitor and N39 was judged."}, "[4]": {"conditions": "read-out: average IC50 for inhibition of various types of HIV-1 pseudoviruses, average over 35 pseudoviruses"}}, "note": "Read-outs that look alike come from different tables or passages of the source. Peptide text beside a SMILES is read from it. * marks the point of attachment. X1 = Cc1c(C)c2c(c(C)c1OC(=O)CCC(=O)*)CCC(C)(CCCC(C)CCCC(C)CCCC(C)C)O2; Stearoyl = CCCCCCCCCCCCCCCCCC(=O)*; Palmitoyl = CCCCCCCCCCCCCCCC(=O)*", "data": [{"smiles": "CCCCCCCCCCCCCCCC(=O)NCCCC[C@H](NC(=O)[C@H](CCC(=O)O)NC(=O)[C@H](CC(C)C)NC(=O)[C@H](CCCCN)NC(=O)[C@H](CCCCN)NC(=O)[C@H](CC(C)C)NC(=O)[C@H](CCC(=O)O)NC(=O)[C@H](CCC(=O)O)NC(=O)[C@H](CCC(=O)O)NC(=O)[C@H](CC(N)=O)NC(=O)[C@H](CCCCN)NC(=O)[C@H](CCCCN)NC(=O)[C@H](CCC(N)=O)NC(=O)[C@H](CCC(N)=O)NC(=O)[C@H](CCC(=O)O)NC(=O)[C@H](CCC(=O)O)NC(=O)[C@H](C)NC(=O)[C@H](CCCCN)NC(=O)[C@H](CCCCN)NC(=O)[C@H](CC(C)C)NC(=O)[C@H](CC(C)C)NC(=O)[C@H](CCC(=O)O)NC(=O)[C@H](CCC(=O)O)NC(=O)[C@@H](NC(=O)[C@H](CC(N)=O)NC(=O)[C@H](C)NC(=O)[C@H](CCC(=O)O)NC(=O)[C@H](CC(C)C)NC(C)=O)[C@@H](C)CC)C(N)=O", "note": "[LP-51] (Ac-LEANIEELLKKAEEQQKKNEEELKKLEK(Palmitoyl)-NH2)", "values": [{"measurement": "IC50", "setting": "[1]; [4]", "value": 0.033, "unit": "nM"}, {"measurement": "inhibitory activity against different subtypes of HIV-1 as folds of T-20", "setting": "[1]", "value": 1255, "unit": "folds"}, {"measurement": "inhibitory activity against SIV (in words)", "setting": "[2]", "value": "extremely potent inhibitory activity"}, {"measurement": "Tm value of the complex with N39", "setting": "[3]", "value": 72, "unit": "°C"}]}, {"smiles": "CCCCCCCCCCCCCCCCCC(=O)NCCCC[C@H](NC(=O)[C@H](CCC(=O)O)NC(=O)[C@H](CC(C)C)NC(=O)[C@H](CCCCN)NC(=O)[C@H](CCCCN)NC(=O)[C@H](CC(C)C)NC(=O)[C@H](CCC(=O)O)NC(=O)[C@H](CCC(=O)O)NC(=O)[C@H](CCC(=O)O)NC(=O)[C@H](CC(N)=O)NC(=O)[C@H](CCCCN)NC(=O)[C@H](CCCCN)NC(=O)[C@H](CCC(N)=O)NC(=O)[C@H](CCC(N)=O)NC(=O)[C@H](CCC(=O)O)NC(=O)[C@H](CCC(=O)O)NC(=O)[C@H](C)NC(=O)[C@H](CCCCN)NC(=O)[C@H](CCCCN)NC(=O)[C@H](CC(C)C)NC(=O)[C@H](CC(C)C)NC(=O)[C@H](CCC(=O)O)NC(=O)[C@H](CCC(=O)O)NC(=O)[C@@H](NC(=O)[C@H](CCCCN)NC(=O)[C@H](CCC(N)=O)NC(=O)[C@H](CCC(=O)O)NC(=O)[C@H](Cc1c[nH]c2ccccc12)NC(C)=O)[C@@H](C)CC)C(N)=O", "note": "[LP-80] (Ac-WEQKIEELLKKAEEQQKKNEEELKKLEK(Stearoyl)-NH2)", "values": [{"measurement": "IC50", "setting": "[1]; read-out: IC50 for many strains, many individual strains of the 35 pseudoviruses", "value": "< 0.001", "unit": "nM"}, {"measurement": "IC50", "setting": "[1]; [4]", "value": 0.006, "unit": "nM"}, {"measurement": "inhibitory activity against different subtypes of HIV-1 as folds of T-20", "setting": "[1]", "value": 6902, "unit": "folds"}, {"measurement": "inhibitory activity against SIV (in words)", "setting": "[2]", "value": "extremely potent inhibitory activity"}, {"measurement": "Tm value of the complex with N39", "setting": "[3]", "value": 79, "unit": "°C"}]}, {"smiles": "CCCCCCCCCCCCCCCCCC(=O)NCCCC[C@H](NC(=O)[C@H](CCC(=O)O)NC(=O)[C@H](CC(C)C)NC(=O)[C@H](CCCCN)NC(=O)[C@H](CCCCN)NC(=O)[C@H](CC(C)C)NC(=O)[C@H](CCC(=O)O)NC(=O)[C@H](CCC(=O)O)NC(=O)[C@H](CCC(=O)O)NC(=O)[C@H](CC(N)=O)NC(=O)[C@H](CCCCN)NC(=O)[C@H](CCCCN)NC(=O)[C@H](CCC(N)=O)NC(=O)[C@H](CCC(N)=O)NC(=O)[C@H](CCC(=O)O)NC(=O)[C@H](CCC(=O)O)NC(=O)[C@H](C)NC(=O)[C@H](CCCCN)NC(=O)[C@H](CCCCN)NC(=O)[C@H](CC(C)C)NC(=O)[C@H](CC(C)C)NC(=O)[C@H](CCC(=O)O)NC(=O)[C@H](CCC(=O)O)NC(=O)[C@@H](NC(C)=O)[C@@H](C)CC)C(N)=O", "note": "[LP-90] (Ac-IEELLKKAEEQQKKNEEELKKLEK(Stearoyl)-NH2)", "values": [{"measurement": "IC50", "setting": "[1]; [4]", "value": 0.014, "unit": "nM"}, {"measurement": "inhibitory activity against different subtypes of HIV-1 as folds of T-20", "setting": "[1]", "value": 2958, "unit": "folds"}, {"measurement": "inhibitory activity against SIV (in words)", "setting": "[2]", "value": "extremely potent inhibitory activity"}, {"measurement": "Tm value of the complex with N39", "setting": "[3]", "value": 71.1, "unit": "°C"}]}, {"smiles": "CC[C@H](C)[C@H](NC(=O)[C@H](CCCCN)NC(=O)[C@H](CCC(N)=O)NC(=O)[C@H](CCC(=O)O)NC(=O)[C@H](Cc1c[nH]c2ccccc12)NC(C)=O)C(=O)N[C@@H](CCC(=O)O)C(=O)N[C@@H](CCC(=O)O)C(=O)N[C@@H](CC(C)C)C(=O)N[C@@H](CC(C)C)C(=O)N[C@@H](CCCCN)C(=O)N[C@@H](CCCCN)C(=O)N[C@@H](C)C(=O)N[C@@H](CCC(=O)O)C(=O)N[C@@H](CCC(=O)O)C(=O)N[C@@H](CCC(N)=O)C(=O)N[C@@H](CCC(N)=O)C(=O)N[C@@H](CCCCN)C(=O)N[C@@H](CCCCN)C(=O)N[C@@H](CC(N)=O)C(=O)N[C@@H](CCC(=O)O)C(=O)N[C@@H](CCC(=O)O)C(=O)N[C@@H](CCC(=O)O)C(=O)N[C@@H](CC(C)C)C(=O)N[C@@H](CCCCN)C(=O)N[C@@H](CCCCN)C(=O)N[C@@H](CC(C)C)C(=O)N[C@@H](CCC(=O)O)C(=O)N[C@@H](CCCCNC(=O)CCC(=O)Oc1c(C)c(C)c2c(c1C)CCC(C)(CCCC(C)CCCC(C)CCCC(C)C)O2)C(N)=O", "note": "(stereo partly shown) [LP-85] (Ac-WEQKIEELLKKAEEQQKKNEEELKKLEK(X1)-NH2)", "values": [{"measurement": "inhibitory activity against different subtypes of HIV-1 as folds of T-20", "setting": "[1]", "value": 941, "unit": "folds"}, {"measurement": "inhibitory activity against SIV (in words)", "setting": "[2]", "value": "extremely potent inhibitory activity"}, {"measurement": "interaction / binding to N39 (in words)", "setting": "[3]", "value": "strong helical binding stability"}]}]}
